Experimental data as given in patent US12226479B2, “Methods and compositions of use of CD8+ tumor infiltrating lymphocyte subtypes and gene signatures thereof” (THE GENERAL HOSPITAL CORPORATION, priority 2017, dated 2025).

Test system: B16-F10
Test: Transplantable B16-F10 melanoma mouse model: tumor growth and survival under CD39 inhibitor and checkpoint antibodies
Description: A schematic summary of the therapy regimen used in the transplantable B16-F10 mouse model (described in Methods). Mice were divided into four groups (n=10 per group): untreated (vehicle control), anti-TIM3, CD39 inhibitor (CD39i, using POM-1 small molecule) and anti-TIM3 in combination with CD39i. FIG. 26D. Box plots showing the kinetics of tumor growth between the different groups of mice on days +4, +7, +11, +14 and +18 post tumor transplantation. Data in box plots are means±SEM. P-value was determined by unpaired-student's t-test. FIG. 26E. Mean tumor volumes for all 4 groups are shown, means±SEM. FIG. 26F. Survival at day 30 of B16-F10 tumor-bearing mice for all 4 groups. Log-rank P-value is shown. Data shown for C-F represents one out of two independent experiments, n=10 for each group per experiment. ns—not significant.
To that end Applicants used the aggressive B16-F10 melanoma mouse model. Mice were treated with the small molecule POM-1 to block CD39 activity^38, alone or in combination with anti-TIM3 blocking antibodies (FIG. 26C).
Mice and tumor transplant. […] B16-F10 cells (0.5×10^6) were intradermally injected into the right flank using a 30 g needle and tumors were measured every 4 days in two dimensions using a digital caliper. Tumor volume (mm^3) was calculated using the following formula V=(L*W^2)/2 (V=volume, L=tumor length, tumor width). […]

In the case of `O.[Na+].[Na+].[Na+].[Na+].[Na+].[Na+].[O]=[W](=[O])([O-])[O-].[O]=[W](=[O])([O-])[O-].[O]=[W](=[O])([O-])[O-].[O]=[W](=[O])=[O].[O]=[W](=[O])=[O].[O]=[W](=[O])=[O].[O]=[W](=[O])=[O].[O]=[W](=[O])=[O].[O]=[W](=[O])=[O].[O]=[W](=[O])=[O].[O]=[W](=[O])=[O].[O]=[W](=[O])=[O]` [POM-1, polyoxometalate-1], the “tumor growth / tumor size” value (B16-F10 intradermal tumors, CD39 inhibitor and/or anti-TIM3, versus untreated) is reported as “transiently reduced tumor growth until day 14” and the “survival on day 30” value (B16-F10 tumor-bearing mice, n=10 per group, POM-1 5 mg/kg/day i.p., anti-TIM3 100 μg/dose i.p. every 3 days, from day 4) is reported as 10%.
